Measurements published in patent publication US20190284148A1, “MICROBIOCIDAL OXADIAZOLE DERIVATIVES” (SYNGENTA PARTICIPATIONS AG, priority 2016, published 2019).

Columns and labels:
[1] = test system: Glomerella Lagenarium (Colletotrichum Lagenarium); experiment: Glomerella lagenarium (Colletotrichum lagenarium) liquid culture / cucumber / preventative (anthracnose); format: cell-based; settings: Colletotrichum orbiculare; 20 ppm in the applied formulation; liquid culture in PDB, 24° C., 3 to 4 days after application; read-out: disease control compared to untreated control (inhibition of growth measured photometrically)
Method: Mycelia fragments or conidia suspensions of a fungus prepared either freshly from liquid cultures of the fungus or from cryogenic storage, are directly mixed into nutrient broth. DMSO solutions of the test compound (max. 10 mg/ml) are diluted with 0.025% Tween20 by a factor of 50 and 10 μl of this solution is pipetted into a microtiter plate (96-well format). The nutrient broth containing the fungal spores/mycelia fragments is then added to give an end concentration of the tested compound. The test plates are incubated in the dark at 24° C. and 96% relative humidity. The inhibition of fungal growth is determined photometrically after 2 to 7 days, depending on the pathosystem, and percent antifungal activity relative to the untreated check is calculated.
Conidia of the fungus from cryogenic storage are directly mixed into nutrient broth (PDB—potato dextrose broth). After placing a (DMSO) solution of test compound into a microtiter plate (96-well format), the nutrient broth containing the fungal spores is added. The test plates are incubated at 24° C. and the inhibition of growth is measured photometrically 3 to 4 days after application.
The following compounds at 20 ppm in the applied formulation give at least 80% disease control in this test when compared to untreated control under the same conditions, which show extensive disease development.

[2] = test system: Puccinia Recondita f. sp. Tritici; experiment: Puccinia recondita f. sp. tritici / wheat / leaf disc preventative (brown rust); format: in vivo; settings: foliar, 200 ppm in the applied formulation, wheat leaf segments cv. Kanzler, preventative (inoculated 1 day after application), assessed 7 to 9 days after application, read-out: disease control compared to untreated control leaf disks
Method: Leaf disks or leaf segments of various plant species are cut from plants grown in a greenhouse. The cut leaf disks or segments are placed in multiwell plates (24-well format) onto water agar. The leaf disks are sprayed with a test solution before (preventative) or after (curative) inoculation. Compounds to be tested are prepared as DMSO solutions (max. 10 mg/ml) which are diluted to the appropriate concentration with 0.025% Tween20 just before spraying. The inoculated leaf disks or segments are incubated under defined conditions (temperature, relative humidity, light, etc.) according to the respective test system. A single evaluation of disease level is carried out 3 to 14 days after inoculation, depending on the pathosystem. Percent disease control relative to the untreated check leaf disks or segments is then calculated. Wheat leaf segments cv. Kanzler were placed on agar in multiwell plates (24-well format) and sprayed with the formulated test compound diluted in water. The leaf disks were inoculated with a spore suspension of the fungus 1 day after application. The inoculated leaf segments were incubated at 19° C. and 75% relative humidity (rh) under a light regime of 12 hours light/12 hours darkness in a climate cabinet and the activity of a compound was assessed as percent disease control compared to untreated when an appropriate level of disease damage appears in untreated check leaf segments (7 to 9 days after application). The following compounds at 200 ppm in the applied formulation give at least 80% disease control in this test when compared to untreated control leaf disks under the same conditions, which show extensive disease development.

[3] = test system: Puccinia Recondita f. sp. Tritici; experiment: Puccinia recondita f. sp. tritici / wheat / leaf disc curative (brown rust); format: in vivo; settings: foliar, 200 ppm in the applied formulation, wheat leaf segments cv. Kanzler, curative (applied 1 day after inoculation), assessed 6 to 8 days after application, read-out: disease control compared to untreated control leaf disks
Method: Leaf disks or leaf segments of various plant species are cut from plants grown in a greenhouse. The cut leaf disks or segments are placed in multiwell plates (24-well format) onto water agar. The leaf disks are sprayed with a test solution before (preventative) or after (curative) inoculation. Compounds to be tested are prepared as DMSO solutions (max. 10 mg/ml) which are diluted to the appropriate concentration with 0.025% Tween20 just before spraying. The inoculated leaf disks or segments are incubated under defined conditions (temperature, relative humidity, light, etc.) according to the respective test system. A single evaluation of disease level is carried out 3 to 14 days after inoculation, depending on the pathosystem. Percent disease control relative to the untreated check leaf disks or segments is then calculated.
Wheat leaf segments cv. Kanzler are placed on agar in multiwell plates (24-well format). The leaf segments are then inoculated with a spore suspension of the fungus. Plates were stored in darkness at 19° C. and 75% relative humidity. The formulated test compound diluted in water was applied 1 day after inoculation. The leaf segments were incubated at 19° C. and 75% relative humidity under a light regime of 12 hours light/12 hours darkness in a climate cabinet and the activity of a compound was assessed as percent disease control compared to untreated when an appropriate level of disease damage appears in untreated check leaf segments (6 to 8 days after application).
The following compounds at 200 ppm in the applied formulation give at least 80% disease control in this test when compared to untreated control leaf disks under the same conditions, which show extensive disease development.

melting point [°C] | SMILES | inhibition at 20 ppm [1] [%] | pest or weed control at 200 ppm [2] [%] | pest or weed control at 200 ppm [3] [%]
155 to 170 | CC(=O)Nc1ccc(-c2noc(C(F)(F)F)n2)cc1Cl [Compound 1.1, N-[2-chloro-4-[5-(trifluoromethyl)-1,2,4-oxadiazol-3-yl]phenyl]acetamide] | ≥ 80 |  | 
77 to 84 | COCC(=O)Nc1ccc(-c2noc(C(F)(F)F)n2)cc1Cl [Compound 1.2, N-[2-chloro-4-[5-(trifluoromethyl)-1,2,4-oxadiazol-3-yl]phenyl]-2-methoxy-acetamide] | ≥ 80 |  | 
153 to 179 | CC(=O)Nc1ccc(-c2noc(C(F)(F)F)n2)cc1C [Compound 1.3, N-[2-methyl-4-[5-(trifluoromethyl)-1,2,4-oxadiazol-3-yl]phenyl]acetamide] | ≥ 80 | ≥ 80 | ≥ 80
178 to 185 | CCC(=O)Nc1ccc(-c2noc(C(F)(F)F)n2)cc1C [Compound 1.4, N-[2-methyl-4-[5-(trifluoromethyl)-1,2,4-oxadiazol-3-yl]phenyl]propanamide] | ≥ 80 |  | 
73 to 80 | COCC(=O)Nc1ccc(-c2noc(C(F)(F)F)n2)cc1C [Compound 1.5, 2-methoxy-N-[2-methyl-4-[5-(trifluoromethyl)-1,2,4-oxadiazol-3-yl]phenyl]acetamide] | ≥ 80 | ≥ 80 | 
123 to 128 | CCC(=O)Nc1ccc(-c2noc(C(F)(F)F)n2)cc1F [Compound 1.6, N-[2-fluoro-4-[5-(trifluoromethyl)-1,2,4-oxadiazol-3-yl]phenyl]propanamide] | ≥ 80 |  | ≥ 80
120 to 126 | CC(=O)Nc1ccc(-c2noc(C(F)(F)F)n2)cc1F [Compound 1.7, N-[2-fluoro-4-[5-(trifluoromethyl)-1,2,4-oxadiazol-3-yl]phenyl]acetamide] | ≥ 80 | ≥ 80 | ≥ 80
42 to 46 | COCC(=O)Nc1ccc(-c2noc(C(F)(F)F)n2)cc1F [Compound 1.8, N-[2-fluoro-4-[5-(trifluoromethyl)-1,2,4-oxadiazol-3-yl]phenyl]-2-methoxy-acetamide] | ≥ 80 | ≥ 80 | 
62 to 66 | C=CCON(C)C(=O)Nc1ccc(-c2noc(C(F)(F)F)n2)cc1C [Compound 1.11, 1-allyloxy-1-methyl-3-[2-methyl-4-[5-(trifluoromethyl)-1,2,4-oxadiazol-3-yl]phenyl]urea] | ≥ 80 |  | 
114 to 117 | C=C(C)CONC(=O)Nc1ccc(-c2noc(C(F)(F)F)n2)cc1C [Compound 1.12, 1-(2-methylallyloxy)-3-[2-methyl-4-[5-(trifluoromethyl)-1,2,4-oxadiazol-3-yl]phenyl]urea] | ≥ 80 | ≥ 80 | 
101 to 104 | C=CCONC(=O)Nc1ccc(-c2noc(C(F)(F)F)n2)cc1C [Compound 1.13, 1-allyloxy-3-[2-methyl-4-[5-(trifluoromethyl)-1,2,4-oxadiazol-3-yl]phenyl]urea] | ≥ 80 | ≥ 80 | 
 | CC(C)C(=O)Nc1ccc(-c2noc(C(F)(F)F)n2)cc1F [Compound 1.14, N-[2-fluoro-4-[5-(trifluoromethyl)-1,2,4-oxadiazol-3-yl]phenyl]-2-methyl-propanamide] | ≥ 80 |  | 
 | COCCC(=O)Nc1ccc(-c2noc(C(F)(F)F)n2)cc1F [Compound 1.15, N-[2-fluoro-4-[5-(trifluoromethyl)-1,2,4-oxadiazol-3-yl]phenyl]-3-methoxy-propanamide] | ≥ 80 |  | ≥ 80
 | CCC(C)C(=O)Nc1ccc(-c2noc(C(F)(F)F)n2)cc1F (stereo not drawn) [Compound 1.16, N-[2-fluoro-4-[5-(trifluoromethyl)-1,2,4-oxadiazol-3-yl]phenyl]-2-methyl-butanamide] | ≥ 80 |  | 
 | CC(CO)(CCl)C(=O)Nc1ccc(-c2noc(C(F)(F)F)n2)cc1F (stereo not drawn) [Compound 1.17, 2-(chloromethyl)-N-[2-fluoro-4-[5-(trifluoromethyl)-1,2,4-oxadiazol-3-yl]phenyl]-3-hydroxy-2-methyl-propanamide] | ≥ 80 | ≥ 80 | 
 | CCC(COC)C(=O)Nc1ccc(-c2noc(C(F)(F)F)n2)cc1F (stereo not drawn) [Compound 1.18, N-[2-fluoro-4-[5-(trifluoromethyl)-1,2,4-oxadiazol-3-yl]phenyl]-2-(methoxymethyl) butanamide] | ≥ 80 | ≥ 80 | ≥ 80
 | COCCCC(=O)Nc1ccc(-c2noc(C(F)(F)F)n2)cc1F [Compound 1.19, N-[2-fluoro-4-[5-(trifluoromethyl)-1,2,4-oxadiazol-3-yl]phenyl]-4-methoxy-butanamide] | ≥ 80 | ≥ 80 | 
 | COCCC(=O)Nc1ccc(-c2noc(C(F)(F)F)n2)cc1C [Compound 1.21, 3-methoxy-N-[2-methyl-4-[5-(trifluoromethyl)-1,2,4-oxadiazol-3-yl]phenyl]propanamide] | ≥ 80 |  | 
 | Cc1cc(-c2noc(C(F)(F)F)n2)ccc1NC(=O)C(C)(CO)CCl (stereo not drawn) [Compound 1.23, 2-(chloromethyl)-3-hydroxy-2-methyl-N-[2-methyl-4-[5-(trifluoromethyl)-1,2,4-oxadiazol-3-yl]phenyl]propanamide] | ≥ 80 |  | 
 | CCC(COC)C(=O)Nc1ccc(-c2noc(C(F)(F)F)n2)cc1C (stereo not drawn) [Compound 1.24, 2-(methoxymethyl)-N-[2-methyl-4-[5-(trifluoromethyl)-1,2,4-oxadiazol-3-yl]phenyl]butanamide] | ≥ 80 |  | 
 | COCCCC(=O)Nc1ccc(-c2noc(C(F)(F)F)n2)cc1C [Compound 1.25, 4-methoxy-N-[2-methyl-4-[5-(trifluoromethyl)-1,2,4-oxadiazol-3-yl]phenyl]butanamide] | ≥ 80 |  | 
 | Cc1cc(-c2noc(C(F)(F)F)n2)ccc1NC(=O)CC#N [Compound 1.26, 2-cyano-N-[2-methyl-4-[5-(trifluoromethyl)-1,2,4-oxadiazol-3-yl]phenyl]acetamide] | ≥ 80 | ≥ 80 | 
 | COC(C)C(=O)Nc1ccc(-c2noc(C(F)(F)F)n2)cc1C (stereo not drawn) [Compound 1.27, 2-methoxy-N-[2-methyl-4-[5-(trifluoromethyl)-1,2,4-oxadiazol-3-yl]phenyl]propanamide] | ≥ 80 |  | ≥ 80
 | Cc1cc(-c2noc(C(F)(F)F)n2)ccc1NC(=O)CC(F)(F)F [Compound 1.28, 3,3,3-trifluoro-N-[2-methyl-4-[5-(trifluoromethyl)-1,2,4-oxadiazol-3-yl]phenyl]propanamide] |  | ≥ 80 | 
